Blank lines part the entries; values can stand above or below the molecule they belong to.
Columns and labels:
D(1A) dopamine receptor [1] = target: T1, D(1A) dopamine receptor (Homo sapiens, UniProt P21728)
Description: Binding affinity to D1 receptor (unknown origin) assessed as inhibition constant

Acetylcholinesterase = Acetylcholinesterase (Homo sapiens, UniProt P22303)
Description: Inhibition of AChE (unknown origin) by Ellman's colorimetric method

Beta-secretase 1 = Beta-secretase 1 (Homo sapiens, UniProt P56817)
Description: Inhibition of BACE1 (unknown origin) by FRET assay

Cholinesterase = Cholinesterase (Homo sapiens, UniProt P06276)
Description: Inhibition of BChE (unknown origin) by Ellman's colorimetric method

Vasopressin V1a receptor = Vasopressin V1a receptor (Homo sapiens, UniProt P37288)
Description: Inhibition of Vasopressin V1A receptor (unknown origin)

D(4) dopamine receptor [2] = target: T2, D(4) dopamine receptor (Homo sapiens, UniProt P21917)
T2 sequence (P21917 whole entry): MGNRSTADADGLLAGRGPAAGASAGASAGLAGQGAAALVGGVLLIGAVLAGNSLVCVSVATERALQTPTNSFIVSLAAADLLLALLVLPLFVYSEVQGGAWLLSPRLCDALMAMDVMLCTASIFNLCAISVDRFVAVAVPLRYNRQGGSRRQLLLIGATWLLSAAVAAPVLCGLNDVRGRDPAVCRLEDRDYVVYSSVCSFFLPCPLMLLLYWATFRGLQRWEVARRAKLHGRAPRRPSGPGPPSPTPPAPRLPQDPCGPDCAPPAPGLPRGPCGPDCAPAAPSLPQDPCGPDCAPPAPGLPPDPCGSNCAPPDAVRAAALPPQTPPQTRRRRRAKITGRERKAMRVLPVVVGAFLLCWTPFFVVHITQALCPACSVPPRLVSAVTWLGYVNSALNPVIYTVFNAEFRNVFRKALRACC
Description: Inhibition of D4 receptor (unknown origin)

[3] = target: T3, Amine oxidase [flavin-containing] B (Homo sapiens, UniProt P27338)
T3 sequence (P27338 whole entry): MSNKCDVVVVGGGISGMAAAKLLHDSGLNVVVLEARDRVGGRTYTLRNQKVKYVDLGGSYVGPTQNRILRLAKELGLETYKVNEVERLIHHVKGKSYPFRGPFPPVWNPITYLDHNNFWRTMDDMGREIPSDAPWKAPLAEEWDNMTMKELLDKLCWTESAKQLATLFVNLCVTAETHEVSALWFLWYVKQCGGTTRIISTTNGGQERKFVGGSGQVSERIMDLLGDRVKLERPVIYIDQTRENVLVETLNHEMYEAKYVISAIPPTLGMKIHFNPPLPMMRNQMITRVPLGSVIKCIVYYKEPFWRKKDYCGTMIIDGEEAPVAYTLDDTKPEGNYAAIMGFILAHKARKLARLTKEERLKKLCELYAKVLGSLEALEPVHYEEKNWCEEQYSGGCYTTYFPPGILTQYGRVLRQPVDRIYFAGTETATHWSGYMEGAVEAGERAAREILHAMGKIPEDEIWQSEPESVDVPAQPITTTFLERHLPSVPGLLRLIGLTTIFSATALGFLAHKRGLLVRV
Description: Inhibition of MAO-B (unknown origin) measured by MAO-GloTM method

[4] = target: T4, Amine oxidase [flavin-containing] A (Homo sapiens, UniProt P21397)
T4 sequence (P21397 whole entry): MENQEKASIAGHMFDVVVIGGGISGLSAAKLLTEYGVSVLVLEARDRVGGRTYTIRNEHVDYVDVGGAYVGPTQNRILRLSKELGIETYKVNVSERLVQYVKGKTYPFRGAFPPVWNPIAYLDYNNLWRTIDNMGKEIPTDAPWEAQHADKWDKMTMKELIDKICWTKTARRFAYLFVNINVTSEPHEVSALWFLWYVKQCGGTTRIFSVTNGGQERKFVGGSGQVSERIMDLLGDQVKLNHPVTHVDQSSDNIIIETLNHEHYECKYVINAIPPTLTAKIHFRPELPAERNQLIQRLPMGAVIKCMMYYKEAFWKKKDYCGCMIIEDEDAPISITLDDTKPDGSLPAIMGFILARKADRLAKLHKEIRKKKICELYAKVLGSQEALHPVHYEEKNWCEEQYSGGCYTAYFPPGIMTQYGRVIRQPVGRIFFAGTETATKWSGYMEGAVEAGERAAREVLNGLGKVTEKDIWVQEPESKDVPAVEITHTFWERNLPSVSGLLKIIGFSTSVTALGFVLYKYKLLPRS
Description: Inhibition of MAO-A (unknown origin) measured by MAO-GloTM method

D(4) dopamine receptor [5] = target: T2, D(4) dopamine receptor; remark: listed apart in the source
Description: Agonist activity at D4 receptor (unknown origin)

D(2) dopamine receptor [6] = target: T5, D(2) dopamine receptor (Homo sapiens, UniProt P14416)
Description: Antagonist activity at D2 receptor (unknown origin)

D(4) dopamine receptor [7] = target: T2, D(4) dopamine receptor; remark: listed apart in the source
Description: Binding affinity to D4 receptor (unknown origin) assessed as inhibition constant

D(2) dopamine receptor [8] = target: T5, D(2) dopamine receptor; remark: listed apart in the source
Description: Binding affinity to D2 receptor (unknown origin) assessed as inhibition constant

D(3) dopamine receptor [9] = target: T6, D(3) dopamine receptor (Homo sapiens, UniProt P35462)
Description: Binding affinity to D3 receptor (unknown origin) assessed as inhibition constant

D(2) dopamine receptor [10] = target: T5, D(2) dopamine receptor; remark: listed apart in the source
D(2) dopamine receptor [11] = target: T5, D(2) dopamine receptor; remark: listed apart in the source
D(2) dopamine receptor [12] = target: T5, D(2) dopamine receptor; remark: listed apart in the source
Description: Inhibition of D2 receptor (unknown origin)

D(1A) dopamine receptor [13] = target: T1, D(1A) dopamine receptor; remark: listed apart in the source
Description: Inhibition of D1 receptor (unknown origin)

D(3) dopamine receptor [14] = target: T6, D(3) dopamine receptor; remark: listed apart in the source
Description: Agonist activity at D3 receptor (unknown origin)

T1 sequence (P21728 whole entry): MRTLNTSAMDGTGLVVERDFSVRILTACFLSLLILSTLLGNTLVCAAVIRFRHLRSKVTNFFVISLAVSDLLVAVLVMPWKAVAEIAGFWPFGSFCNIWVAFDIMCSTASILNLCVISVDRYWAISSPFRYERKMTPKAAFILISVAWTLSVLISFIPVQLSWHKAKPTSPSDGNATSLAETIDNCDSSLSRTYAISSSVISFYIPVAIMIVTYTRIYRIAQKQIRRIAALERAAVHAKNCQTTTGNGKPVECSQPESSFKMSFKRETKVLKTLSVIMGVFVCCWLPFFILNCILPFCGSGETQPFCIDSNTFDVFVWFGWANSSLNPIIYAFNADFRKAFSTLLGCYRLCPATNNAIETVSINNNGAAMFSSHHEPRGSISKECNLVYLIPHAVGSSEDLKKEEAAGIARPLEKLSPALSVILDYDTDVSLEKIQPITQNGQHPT
T5 sequence (P14416 whole entry): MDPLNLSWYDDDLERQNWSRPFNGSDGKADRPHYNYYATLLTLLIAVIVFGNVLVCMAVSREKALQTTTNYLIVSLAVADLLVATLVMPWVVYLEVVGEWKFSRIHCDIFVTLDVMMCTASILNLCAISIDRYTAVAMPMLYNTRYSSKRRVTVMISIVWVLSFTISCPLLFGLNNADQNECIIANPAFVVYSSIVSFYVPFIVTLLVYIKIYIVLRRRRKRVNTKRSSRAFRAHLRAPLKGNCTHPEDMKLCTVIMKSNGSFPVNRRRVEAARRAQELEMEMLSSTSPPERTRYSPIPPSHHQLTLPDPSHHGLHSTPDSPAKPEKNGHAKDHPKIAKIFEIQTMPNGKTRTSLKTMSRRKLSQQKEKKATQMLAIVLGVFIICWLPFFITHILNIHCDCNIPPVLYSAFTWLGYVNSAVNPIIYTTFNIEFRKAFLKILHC
T6 sequence (P35462 whole entry): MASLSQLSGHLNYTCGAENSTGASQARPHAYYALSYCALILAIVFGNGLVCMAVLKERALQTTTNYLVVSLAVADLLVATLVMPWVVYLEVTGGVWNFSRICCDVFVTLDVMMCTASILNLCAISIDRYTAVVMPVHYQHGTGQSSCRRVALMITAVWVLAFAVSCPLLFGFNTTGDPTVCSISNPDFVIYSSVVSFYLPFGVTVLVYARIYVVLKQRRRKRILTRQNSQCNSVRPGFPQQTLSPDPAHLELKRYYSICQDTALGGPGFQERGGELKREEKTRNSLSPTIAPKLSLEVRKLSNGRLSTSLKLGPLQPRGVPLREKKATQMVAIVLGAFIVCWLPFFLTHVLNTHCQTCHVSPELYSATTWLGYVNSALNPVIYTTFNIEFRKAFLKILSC
Chain of Cholinesterase (P06276 whole entry): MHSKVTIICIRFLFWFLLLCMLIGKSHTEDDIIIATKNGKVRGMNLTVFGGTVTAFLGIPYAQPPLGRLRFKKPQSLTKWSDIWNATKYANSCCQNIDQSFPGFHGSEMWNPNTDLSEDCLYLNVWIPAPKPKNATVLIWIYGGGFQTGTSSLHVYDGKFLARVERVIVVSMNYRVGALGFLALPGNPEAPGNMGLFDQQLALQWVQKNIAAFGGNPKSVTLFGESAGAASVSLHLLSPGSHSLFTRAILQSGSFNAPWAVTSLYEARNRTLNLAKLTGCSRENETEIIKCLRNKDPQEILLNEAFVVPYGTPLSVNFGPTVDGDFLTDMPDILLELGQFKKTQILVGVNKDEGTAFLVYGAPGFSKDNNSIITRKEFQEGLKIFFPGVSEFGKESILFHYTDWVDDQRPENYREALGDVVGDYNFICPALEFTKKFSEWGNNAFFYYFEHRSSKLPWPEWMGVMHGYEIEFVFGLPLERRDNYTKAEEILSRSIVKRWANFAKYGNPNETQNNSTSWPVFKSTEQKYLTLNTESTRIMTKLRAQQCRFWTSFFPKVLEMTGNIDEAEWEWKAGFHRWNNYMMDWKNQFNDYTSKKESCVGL
Chain of Beta-secretase 1 (P56817 whole entry): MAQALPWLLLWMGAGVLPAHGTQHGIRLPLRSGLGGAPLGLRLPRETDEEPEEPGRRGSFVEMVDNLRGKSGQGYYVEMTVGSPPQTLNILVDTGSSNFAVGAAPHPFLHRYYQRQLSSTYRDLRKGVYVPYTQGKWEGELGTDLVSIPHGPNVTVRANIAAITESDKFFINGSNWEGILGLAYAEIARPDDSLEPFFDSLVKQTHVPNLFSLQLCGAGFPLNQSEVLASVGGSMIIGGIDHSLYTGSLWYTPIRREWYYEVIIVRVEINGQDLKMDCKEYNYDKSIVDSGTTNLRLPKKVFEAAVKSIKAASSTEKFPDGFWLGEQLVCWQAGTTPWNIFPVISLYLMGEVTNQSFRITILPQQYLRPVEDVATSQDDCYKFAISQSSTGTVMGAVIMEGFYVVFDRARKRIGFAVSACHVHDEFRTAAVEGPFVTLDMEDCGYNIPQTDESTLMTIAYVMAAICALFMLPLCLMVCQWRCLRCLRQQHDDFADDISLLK
Chain of Acetylcholinesterase (P22303 whole entry): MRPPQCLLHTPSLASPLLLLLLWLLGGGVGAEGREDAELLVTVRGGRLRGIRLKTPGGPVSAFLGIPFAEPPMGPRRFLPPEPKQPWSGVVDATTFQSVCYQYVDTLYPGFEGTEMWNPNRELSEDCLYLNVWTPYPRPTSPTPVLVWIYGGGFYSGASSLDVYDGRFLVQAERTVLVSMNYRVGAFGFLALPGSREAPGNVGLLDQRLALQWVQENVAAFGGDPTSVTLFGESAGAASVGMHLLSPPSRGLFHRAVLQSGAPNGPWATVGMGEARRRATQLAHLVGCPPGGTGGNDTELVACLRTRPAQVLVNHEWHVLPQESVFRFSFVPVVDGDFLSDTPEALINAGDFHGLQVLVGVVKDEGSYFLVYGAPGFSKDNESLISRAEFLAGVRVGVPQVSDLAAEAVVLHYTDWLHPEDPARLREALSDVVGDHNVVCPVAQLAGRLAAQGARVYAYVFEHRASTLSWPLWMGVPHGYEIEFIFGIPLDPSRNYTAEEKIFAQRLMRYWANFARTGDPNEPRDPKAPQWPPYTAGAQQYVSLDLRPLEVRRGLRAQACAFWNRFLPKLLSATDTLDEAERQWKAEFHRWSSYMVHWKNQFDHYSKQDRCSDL
Chain of Vasopressin V1a receptor (P37288 whole entry): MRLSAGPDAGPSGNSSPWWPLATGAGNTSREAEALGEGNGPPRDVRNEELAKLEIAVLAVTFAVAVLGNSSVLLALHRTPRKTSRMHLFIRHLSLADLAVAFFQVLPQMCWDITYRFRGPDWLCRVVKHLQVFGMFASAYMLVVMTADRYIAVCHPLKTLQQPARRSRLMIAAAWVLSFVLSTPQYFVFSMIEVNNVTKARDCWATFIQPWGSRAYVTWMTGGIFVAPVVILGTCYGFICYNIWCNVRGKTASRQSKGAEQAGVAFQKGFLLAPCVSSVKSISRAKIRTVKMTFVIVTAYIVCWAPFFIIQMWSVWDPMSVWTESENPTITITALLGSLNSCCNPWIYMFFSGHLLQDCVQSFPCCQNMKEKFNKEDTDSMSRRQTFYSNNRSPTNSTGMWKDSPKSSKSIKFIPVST

Structure (SMILES): CCCN1CCc2cccc3c2[C@H]1Cc1cccc(O)c1-3
Ki (D(1A) dopamine receptor [1]): 0.699 µM

Structure (SMILES): C=C(C)[C@H](CC=C(C)C)Cc1c(O)cc(OC)c2c1O[C@H](c1ccc(O)cc1O)CC2=O
IC50 (Acetylcholinesterase): 42.1 µM
IC50 (Beta-secretase 1): 24.5 µM
IC50 (Cholinesterase): 5.29 µM

Structure (SMILES): O=c1cc(-c2ccc(O)c(O)c2)oc2cc(O)cc(O)c12 [LUTEOLIN]
IC50 (Vasopressin V1a receptor): 19.5 µM
IC50 (D(4) dopamine receptor [2]): 39.6 µM
IC50 [3]: > 100 µM
IC50 [4]: 8.57 µM

EC50 (D(4) dopamine receptor [5]): 57.2 µM
IC50 [3]: 151 µM
IC50 [4]: 205 µM
Structure (SMILES): OCc1c(Br)c(O)c(O)c(Br)c1Br

Structure (SMILES): COc1cc2c(cc1O)C[C@H]1c3c(cc(O)c(OC)c3-2)CCN1C [BOLDINE]
IC50 (D(2) dopamine receptor [6]): 0.52 µM

Structure (SMILES): OCCN1CCN(CCCN2c3ccccc3Sc3ccc(C(F)(F)F)cc32)CC1 [FLUPHENAZINE]
Ki (D(4) dopamine receptor [7]): 0.13 µM

Structure (SMILES): CCCCC(=O)Oc1cccc2c1-c1cccc3c1[C@@H](C2)N(CCC)CC3
Ki (D(2) dopamine receptor [8]): 0.34 µM
Ki (D(1A) dopamine receptor [1]): > 20 µM

Ki (D(1A) dopamine receptor [1]): 3.8 µM
Ki (D(3) dopamine receptor [9]): 0.093 µM
Structure (SMILES): Oc1cc2c(cc1O)C1Cc3cccc(O)c3CN1CC2 (centres undefined)

IC50 (D(2) dopamine receptor [10]): 17.1 µM
IC50 (D(2) dopamine receptor [11]): 38.6 µM
Structure (SMILES): COc1ccc2cc3[n+](cc2c1OC)CCc1cc2c(cc1-3)OCO2 [BERBERINE CHLORIDE]

IC50 (D(2) dopamine receptor [12]): 2.5 µM
Structure (SMILES): C=C1CCC[C@]2(C)Cc3occ(C)c3C[C@@H]12 [ATRACTYLON]

Structure (SMILES): CCCN1CCc2cccc3c2[C@H]1Cc1cccc(OC(C)=O)c1-3
Ki (D(2) dopamine receptor [8]): 0.0723 µM
Ki (D(1A) dopamine receptor [1]): > 10 µM

IC50 (D(2) dopamine receptor [12]): 0.32 µM
IC50 (D(1A) dopamine receptor [13]): 0.08 µM
Structure (SMILES): COc1cc2c(cc1OC)Oc1c(O)ccc3c1[C@@H](C2)N(C)CC3

Structure (SMILES): Oc1c(O)c(Br)c(COCc2c(Br)c(O)c(O)c(Br)c2Br)c(Br)c1Br
EC50 (D(3) dopamine receptor [14]): 59 µM
EC50 (D(4) dopamine receptor [5]): 59 µM
IC50 [3]: 103 µM
IC50 [4]: 89.3 µM

— ChEMBL document CHEMBL5523761 (J Med Chem, 2024)
